Measurements taken from ChEMBL document CHEMBL4680132, “Tuning isoform selectivity and bortezomib sensitivity with a new class of alkenyl indene PDI inhibitor” (Eur J Med Chem, 2020).
Activity calls are given as the source filed them. The calls are words filed in the database; no cut-off is given here.

Key:
[1] = test system: MM1.S; test: Inhibition of PDI in human bortezomib-resistant MM1.S cells assessed as induction of CHOP levels at 0.5 uM incubated for 8 hrs by Western blot analysis
[2] = test system: MM1.S; test: Inhibition of PDI in human bortezomib-resistant MM1.S cells assessed as induction of ATF4 levels at 0.5 uM incubated for 8 hrs by Western blot analysis
[3] = test system: MM1.S; test: Inhibition of PDI in human bortezomib-resistant MM1.S cells assessed as accumulation of poly-ubiquinated protein at 0.5 uM incubated for 8 hrs by Western blot analysis
[4] = test system: MM1.S; test: Inhibition of PDI in human bortezomib-resistant MM1.S cells assessed as induction of Nrf2 levels at 0.5 uM incubated for 8 hrs by Western blot analysis
[5] = Inhibition of thioredoxin (unknown origin); parameters: species or system Homo sapiens
[6] = target: T1, Protein disulfide-isomerase A6 (Homo sapiens, UniProt Q15084); test: Inhibition of PDIA6 (unknown origin) expressed in Escherichia coli BL21 (DE3) incubated for 1 hr and measured by insulin reduction assay
T1 sequence (Q15084 whole entry): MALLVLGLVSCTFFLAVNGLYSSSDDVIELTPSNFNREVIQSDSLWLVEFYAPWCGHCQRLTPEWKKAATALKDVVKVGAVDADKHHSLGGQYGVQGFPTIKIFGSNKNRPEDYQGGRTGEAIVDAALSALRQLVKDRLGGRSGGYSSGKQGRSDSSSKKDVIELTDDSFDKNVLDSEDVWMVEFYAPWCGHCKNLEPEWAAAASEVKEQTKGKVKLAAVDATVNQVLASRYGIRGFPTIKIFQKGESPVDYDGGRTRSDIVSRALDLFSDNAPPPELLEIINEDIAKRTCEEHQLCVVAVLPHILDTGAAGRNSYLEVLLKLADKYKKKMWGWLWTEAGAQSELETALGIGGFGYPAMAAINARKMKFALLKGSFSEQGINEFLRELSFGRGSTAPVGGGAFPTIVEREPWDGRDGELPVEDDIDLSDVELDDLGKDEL

[7] = Inhibition of PDI (unknown origin) expressed in Escherichia coli BL21 (DE3) incubated for 1 hr and measured by insulin reduction assay; parameters: species or system Homo sapiens
[8] = target: T2, Protein disulfide-isomerase A3 (Homo sapiens, UniProt P30101); test: Inhibition of PDIA3 (unknown origin) expressed in Escherichia coli BL21 (DE3) incubated for 1 hr and measured by insulin reduction assay
T2 sequence (P30101 whole entry): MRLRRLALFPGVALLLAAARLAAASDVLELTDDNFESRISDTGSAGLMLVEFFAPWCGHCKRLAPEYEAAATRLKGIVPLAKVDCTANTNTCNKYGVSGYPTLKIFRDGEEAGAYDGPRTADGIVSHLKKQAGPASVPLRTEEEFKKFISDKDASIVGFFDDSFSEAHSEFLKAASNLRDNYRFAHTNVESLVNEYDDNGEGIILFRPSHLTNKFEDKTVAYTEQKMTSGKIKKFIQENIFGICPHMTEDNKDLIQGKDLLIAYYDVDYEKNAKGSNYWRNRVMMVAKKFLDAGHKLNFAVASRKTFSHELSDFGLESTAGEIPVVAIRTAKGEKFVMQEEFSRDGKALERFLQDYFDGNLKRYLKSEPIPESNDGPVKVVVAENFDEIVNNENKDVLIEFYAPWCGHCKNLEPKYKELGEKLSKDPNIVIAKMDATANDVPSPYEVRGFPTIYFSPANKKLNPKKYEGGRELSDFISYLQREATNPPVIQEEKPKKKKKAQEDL

[9] = target: Cytochrome P450 3A4 (Homo sapiens, UniProt P08684); test: Inhibition of CYP3A4 in human liver microsomes using midazolam as substrate incubated for 30 mins by LC-MS/MS analysis; type: ADME; settings: 0.5 h
[10] = target: Thioredoxin domain-containing protein 5 (Homo sapiens, UniProt Q8NBS9); test: Inhibition of TXNDC5 (unknown origin)
[11] = target: T3, Protein disulfide-isomerase A4 (Homo sapiens, UniProt P13667); test: Inhibition of PDIA4 (unknown origin) expressed in Escherichia coli BL21 (DE3) incubated for 1 hr and measured by insulin reduction assay
T3 sequence (P13667 whole entry): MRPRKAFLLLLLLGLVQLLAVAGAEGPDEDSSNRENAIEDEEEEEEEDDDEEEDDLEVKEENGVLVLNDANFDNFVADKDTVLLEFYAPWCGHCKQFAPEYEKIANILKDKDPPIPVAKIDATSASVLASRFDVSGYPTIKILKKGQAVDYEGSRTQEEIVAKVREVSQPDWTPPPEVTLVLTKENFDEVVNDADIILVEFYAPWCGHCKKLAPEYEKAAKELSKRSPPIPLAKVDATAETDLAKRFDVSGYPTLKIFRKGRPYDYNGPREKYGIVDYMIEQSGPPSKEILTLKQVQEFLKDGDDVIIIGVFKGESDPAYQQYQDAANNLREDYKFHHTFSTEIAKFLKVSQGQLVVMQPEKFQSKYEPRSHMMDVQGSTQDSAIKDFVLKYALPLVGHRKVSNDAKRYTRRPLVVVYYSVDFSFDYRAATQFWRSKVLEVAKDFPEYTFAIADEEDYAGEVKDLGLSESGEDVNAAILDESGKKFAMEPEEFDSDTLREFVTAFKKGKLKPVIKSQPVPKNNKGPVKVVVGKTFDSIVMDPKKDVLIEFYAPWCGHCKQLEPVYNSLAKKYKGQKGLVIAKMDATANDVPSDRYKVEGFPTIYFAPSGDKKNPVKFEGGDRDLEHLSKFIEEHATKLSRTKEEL

Thioredoxin domain-containing protein 5, sequence (Q8NBS9 whole entry, the tested form may be a part): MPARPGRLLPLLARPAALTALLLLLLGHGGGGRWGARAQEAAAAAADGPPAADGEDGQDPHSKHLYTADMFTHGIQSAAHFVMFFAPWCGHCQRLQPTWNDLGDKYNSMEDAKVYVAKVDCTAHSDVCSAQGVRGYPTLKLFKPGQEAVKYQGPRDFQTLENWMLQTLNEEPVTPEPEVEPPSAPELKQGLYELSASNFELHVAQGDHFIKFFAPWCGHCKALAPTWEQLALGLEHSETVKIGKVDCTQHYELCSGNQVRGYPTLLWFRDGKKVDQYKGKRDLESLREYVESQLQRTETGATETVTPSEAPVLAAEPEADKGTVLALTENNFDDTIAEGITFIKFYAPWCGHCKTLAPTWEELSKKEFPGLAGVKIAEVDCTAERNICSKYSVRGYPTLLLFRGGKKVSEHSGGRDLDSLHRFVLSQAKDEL
Cytochrome P450 3A4, sequence (P08684 whole entry, the tested form may be a part): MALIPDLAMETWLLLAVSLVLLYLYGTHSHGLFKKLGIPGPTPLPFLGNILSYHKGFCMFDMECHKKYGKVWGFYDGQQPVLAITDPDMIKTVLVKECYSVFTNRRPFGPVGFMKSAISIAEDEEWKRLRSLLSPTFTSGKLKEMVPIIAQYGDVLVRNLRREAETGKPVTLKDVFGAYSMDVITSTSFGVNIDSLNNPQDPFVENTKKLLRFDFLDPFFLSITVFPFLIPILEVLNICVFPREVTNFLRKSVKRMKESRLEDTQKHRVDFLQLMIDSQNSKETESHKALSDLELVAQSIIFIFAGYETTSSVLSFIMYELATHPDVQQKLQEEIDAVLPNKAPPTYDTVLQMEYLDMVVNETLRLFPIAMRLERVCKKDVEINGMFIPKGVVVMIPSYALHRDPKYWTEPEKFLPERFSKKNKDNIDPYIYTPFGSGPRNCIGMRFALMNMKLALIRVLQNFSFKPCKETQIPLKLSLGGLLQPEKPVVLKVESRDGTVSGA

| SMILES | CHOP induction (activity call) [1] | ATF4 induction (activity call) [2] | poly-ubiquitinated protein accumulation (qualitative) [3] | Nrf2 induction (activity call) [4] | IC50 [5] | IC50 [6] | IC50 [7] | IC50 [8] | inhibition (INH) [9] | IC50 [10] | IC50 [11] | IC50 ([5]; read-out: IC50) |
| --- | --- | --- | --- | --- | --- | --- | --- | --- | --- | --- | --- | --- |
| CCCCCC/C=C1/C=C(C(F)(F)F)c2cc(O)c(O)cc21 | Active | Active | Active | Active | – | – | – | – | – | – | – | – |
| FC(F)(F)C1=C/C(=C/CCCCCCOCc2ccccc2)c2cc3c(cc21)OCO3 | Active | Active | Active | Active | – | – | – | – | – | – | – | – |
| CCCCCC/C=C1\C=C(C(F)(F)F)c2cc3c(cc21)OCO3 | Active | Active | Active | Active | Not Active | 12 µM | 0.79 µM | 16.5 µM | Not Active | > 100 µM | > 100 µM | – |
| CCCCCC/C=C1\C=C(C(=O)OCC)c2cc(O)c(O)cc21 | Active | Active | Active | Active | – | – | – | – | – | – | – | – |
| FC(F)(F)C1=C/C(=C\CC2CCCC2)c2cc3c(cc21)OCO3 | Active | Active | Active | Active | – | – | – | – | – | – | – | – |
| CCCCCC/C=C1\C=C(C(=O)O)c2cc(O)c(O)cc21 | Active | Active | Active | Active | – | – | – | – | – | – | – | – |
| COc1cc2c(cc1OC)/C(=C/CCCCCCOCc1ccccc1)C=C2C(F)(F)F | Active | Active | Active | Active | – | – | – | – | – | – | – | – |
| CCCCCC/C=C1\C=C(C(=O)NC)c2cc(O)c(O)cc21 | Active | Active | Active | Active | – | – | – | – | – | – | – | – |
| CCCCCCCC/C=C1\C=C(C(F)(F)F)c2cc(O)c(O)cc21 | Active | Active | Active | Active | – | 5.7 µM | 0.6 µM | 4.8 µM | Not Active | 12.1 µM | 33.1 µM | 30.3 µM |
| FC(F)(F)C1=C/C(=C\CCCCCCOCc2ccccc2)c2cc3c(cc21)OCO3 | Active | Active | Active | Active | – | – | – | – | – | – | – | – |
| CCCCCCCC/C=C1/C=C(C(F)(F)F)c2cc(OC)c(OC)cc21 | Active | Active | Active | Active | Not Active | 16.3 µM | 1.12 µM | 20.8 µM | – | > 100 µM | 61.6 µM | – |
| CCCCCCCC/C=C1/C=C(C(F)(F)F)c2cc(O)c(O)cc21 | Active | Active | Active | Active | – | – | – | – | – | – | – | – |
| CCCCCC/C=C1\C=C(C(F)(F)F)c2cc3c(cc21)OCCO3 | Active | Active | Active | Active | – | – | – | – | – | – | – | – |
| FC(F)(F)C1=C/C(=C\CC2CCCCC2)c2cc3c(cc21)OCO3 | Active | Active | Active | Active | – | – | – | – | – | – | – | – |
| CCCCCC/C=C1\C=C(C(F)(F)F)c2cc(O)c(O)cc21 | Active | Active | Active | Active | – | – | – | – | – | – | – | – |
| COc1cc2c(cc1OC)/C(=C\CCCCCCOCc1ccccc1)C=C2C(F)(F)F | Active | Active | Active | Active | – | – | – | – | – | – | – | – |
| CCCCCCCC/C=C1\C=C(C(F)(F)F)c2cc(OC)c(OC)cc21 | Active | Active | Active | Active | – | – | – | – | – | – | – | – |
| CCCCCC/C=C1\C=C(C(F)(F)F)c2cc(OC)ccc21 | Active | Active | Active | Active | – | – | – | – | – | – | – | – |
